Source: patent US6548516B1, “1-(3-heteroarylpropyl- or -prop-2-enyl)-4-benzylpiperidines used as NMDA receptor antagonists” (Merck Patent GmbH, priority 1998, dated 2003)

O=c1[nH]c2ccc(CCCN3CCC(Cc4ccc(F)cc4)CC3)cc2o1 [Example 1, 6-{3-[4-(4-fluorobenzyl)piperid-1-yl]propyl}-3H-benzoxazol-2-one]
melting point: 105 to 107 °C

O=c1[nH]c2ccc(C=CCN3CCC(Cc4ccc(F)cc4)CC3)cc2o1 [Example 2, 6-{3-[4-(4-fluorobenzyl)piperid-1-yl]propenyl}-3H-benzoxazol-2-one]
melting point: 202 to 203.5 °C
